Experimental data as given in US20160228444A1, “NUCLEOSIDE ANALOGS AND USES THEREOF” (Ramot at Tel-Aviv University Ltd., priority 2015, published 2016).
Entries after “also recorded” stand apart in the source; their conditions may differ. Where two headings read alike, the source gives them in different places.

Tests used:
U251 glioblastoma cells = assay: ROS production (DCF-DA, flow cytometry); type: cell-based, human; settings: 5-6 h treatment, FIG. 1D
Method: ROS were measured in live cells by monitoring the oxidation of DCF-DA (a cell-permeable probe), which undergoes deacetylation by cellular esterases and fluoresces upon oxidation by ROS. U251 MG (2×10^5 cells/six-well plates), astrocytes or H9C2 (5×10^5 cells/six-well plates) were treated as specified, incubated with […] DCF-DA for 30 min at 37° C., washed with PBS and analyzed (10^4 cells) by flow cytometry using a 488 nm excitation beam (Calibur cytometer, Becton Dickinson). The percentage of cells stained positively for DCF was determined with CellQuest software (BD Biosciences, San Jose, Calif., USA).
To gain insights into the mechanism of cell-type specific effects, ROS production in cancer cells and in non-cancer cells after treatment for 5-6 h with AN446, Dox and AN446+Dox, were assessed by staining the cells with the membrane-permeable fluorescent dye DCF-DA.

Rad51 in H9C2 cells = assay: Rad51 (Western blot), 24 or 48 hours; type: cell-based, rat; settings: FIG. 14B
Method: (§1) The effects of the abovementioned HDAC inhibitors on DNA damage and repair were then assessed by evaluating changes in levels of phosphorylated histone H2AX (pH2AX), a marker of DNA double-strand breaks, and Rad51, a marker of homologous recombination-guided DNA repair of double-strand breaks [Nagathihalli & Nagaraju, Biochim Biophys Acta 2011, 1816:209-218; Rogakou et al., J Biol Chem 1998, 273:5858-5868].
(§2) U251 and H9C2 cells were treated with the HDAC inhibitors for 24 or 48 hours, and then subjected to Western blot analysis.

primary rat astrocytes = type: cell-based; settings: noncancerous cells; combination compared to Dox alone; FIG. 1C
Method: (§3) Cell viability by flow cytometry analysis (FACS) analysis was determined using the Mebcyto apoptosis kit (MBL-Japan). The cell lines 4T1, U251 (2×10^5 cells/well), astrocytes and the cardiomyoblastic cell line H9C2 (5×10^5 cells/well) were seeded in six-well plates. Following treatment they were trypsinized, washed with PBS, resuspended in […] of binding buffer and double-stained with annexin V-FITC and propidium iodide (PI) according to the manufacturer's instructions. The stained cells were subjected to FACS analyses (Calibur cytometer, Becton Dickinson) where 30,000 cells were allowed to flow for each determination point and the percentage of cells in each state (viability or death) was defined by their distribution in fluorescence dot-plots using WinMdi 2.8 software (Scripps Research Institute, La-Jolla, USA).
(§4) The apoptotic effect of AN446, Dox and their combination was evaluated in U251 and 4T1 cancer cells, and in the non-cancerous rat cardiomyoblast cell line (H9C2) and in primary rat astrocytes, using procedures previously described for AN7 [Tarasenko et al., Invest New Drugs 2012, 30:130-143].

TNF-α [1] = assay: TNF-α in supernatant of LPS-treated THP1 cells (ELISA); type: cell-based; settings: 1 μg/ml LPS, AN446 20 or 40 μM, FIG. 7B
Method: (§5) The effect of AN446 on inflammation-associated pathways was evaluated in the monocytic THP1 cell line and in the MDA-MB-231 breast carcinoma cell line. Supernatants of treated THP1 cells were collected and IL-6, IL-10 and TNF-α concentrations were quantified by ELISA (R&D systems). TLR4 expression in THP1 cells was assessed using fluorescent anti-TLR4 antibodies and FACS analysis. In addition, gene expression for MCP-1, TNF-α and TLR4 in MDA-MB-231 was evaluated by qRT-PCT, following treatment with AN446 and/or paclitaxel.

[2] = system: NCI-N87 gastric carcinoma cells; assay: Median-effect drug interaction, Hoechst viability, 72 h; type: cell-based, human; settings: for IC50: Homo sapiens
Method: (§6) The ratios of the drug combination were based on the ratio of their IC50 of each drug alone. Cell viability was determined by MTT assay, as described hereinabove. The drugs were added to the cells and incubated for 72 h.
(§7) Drug interaction in adherent cells was evaluated as above except that the viability was determined by Hoechst assay.

T47D cells = assay: as above; type: cell-based, human; settings: for IC50: Homo sapiens
Method: as §6, §7

MDA-231 cells = assay: as above; type: cell-based, human; settings: for IC50: Homo sapiens
Method: as §6, §7

MCP-1 = MCP-1 gene expression in MDA-MB-231 cells (qRT-PCR); type: cell-based, human; settings: combination with paclitaxel, FIG. 7C
Method: as §5

TLR4 = TLR4 expression in LPS-treated THP1 cells (anti-TLR4 antibodies, FACS); type: cell-based; settings: 1 μg/ml LPS, AN446 20 or 40 μM, FIG. 7A
Method: as §5

TNF-α [3] = assay: Serum TNF-α in U251 xenograft mice (ELISA); type: in vivo; settings: co-administration with doxorubicin, FIG. 8C
Method: AN446 was tested in vivo using a xenograft of glioblastoma (U251 cells) in mice.

[4] = system: acetylated H3 histone in U251 glioblastoma cells; assay: Histone H3 acetylation (Western blot), 24 hours; type: cell-based, human; settings: FIG. 12
Method: The effects of the abovementioned HDAC inhibitors on histone acetylation were also compared. U251 and H9C2 cells were treated with the HDAC inhibitors for 24 hours (according to procedures described hereinabove with respect to FIGS. 9 and 10), and then subjected to Western blot analysis.

[5] = system: U251 MG human glioma cells; assay: FACS viability, annexin V-FITC / PI; type: cell-based
Method: as §3, §4

[6] = system: murine mammary carcinoma 4T1; assay: FACS viability, annexin V-FITC / PI; type: cell-based; settings: AN446 24 h; 200 nM Dox 5 h; combination compared to Dox alone; FIG. 1C
Method: as §3, §4

Rad51 in U251 cells = assay: Rad51 (Western blot), 24 or 48 hours; type: cell-based, human; settings: FIG. 14A
Method: as §1, §2

For CCCC(CCC)C(=O)Nc1nc2c(ncn2COCCOC(=O)C(CCC)CCC)c(=O)[nH]1 [AN446, N-valproyl-9-(2-valproyloxy)ethoxymethyl-guanine], the “percentage of ROS positive U251 cells” value (U251 glioblastoma cells) was “increased the percentage of ROS positive U251 glioblastoma cells significantly more than Dox”, the “expression of Rad51 in cardiomyocytes (H9C2)” value (Rad51 in H9C2 cells) was “moderately increased expression” and the “viability / mortality of astrocytes” value (primary rat astrocytes) was “did not substantially affect the viability”. The “LPS-induced expression of TNF-α” value (TNF-α [1]) was “suppressed”, the IC50 ([2]; NCI-N87, NCI-N87, single agent, Table 2) was 20 ± 3 µM and the IC50 ([2]; NCI-N87, NCI-N87, single agent, Table 3) was 20 ± 3 µM. For the same molecule, the IC50 ([2]; NCI-N87, read-out: com IC50, NCI-N87, in combination with Dox) was 6 µM, the IC50 ([2]; NCI-N87, read-out: com IC50, NCI-N87, in combination with paclitaxel) was 9.1 ± 0.4 µM and the “CI (combination index with paclitaxel)” value ([2]; NCI-N87) was 0.76. For the same molecule, the “CI (combination index with paclitaxel)” value (T47D cells) was 1.4, the IC50 (T47D cells; read-out: com IC50, T47D, in combination with Dox) was 5.2 µM and the IC50 (T47D cells; read-out: com IC50, T47D, in combination with paclitaxel) was 13.6 ± 0.6 µM. The IC50 (T47D cells; single agent, Table 2) was 21.7 µM, the IC50 (T47D cells; single agent, Table 3) was 23.6 ± 0.6 µM and the IC50 (MDA-231 cells; MDA-MB-231, MDA-231, in combination with Dox, read-out: com IC50) was 17 µM. For the same molecule, the IC50 (MDA-231 cells; MDA-MB-231, MDA-231, in combination with paclitaxel, read-out: com IC50) was 14 ± 0.3 µM, the IC50 (MDA-231 cells; MDA-MB-231, MDA-231, single agent, Table 2, read-out: IC50) was 38 µM and the IC50 (MDA-231 cells; MDA-MB-231, MDA-231, single agent, Table 3, read-out: IC50) was 37.8 ± 1.1 µM. The “CI (combination index with paclitaxel)” value (MDA-231 cells; MDA-231) was 0.8, the “paclitaxel-induced increase in expression of MCP-1” value (MCP-1) was “significantly attenuated” and the “LPS-induced expression of TLR4” value (TLR4) was “suppressed”. The “doxorubicin-induced rise in serum levels of TNF-α” value (TNF-α [3]) was “prevented a doxorubicin-induced rise in serum levels of TNF-α”, the “histone acetylation in U251 cancer cells” value [4] was “increased histone acetylation considerably” and the “cell death in U251 glioblastoma cells” value ([5]; 24, 48 or 72 hours, each inhibitor at its U251 IC50, FIG. 9, listed as valprostat) was “effective at inducing cell death in glioblastoma cells after 24, 48 or 72 hours; also recorded: particularly more effective than the other tested HDAC inhibitors at inducing cell death after 24 hours”. The “viability / mortality of U251 cells” value ([5]; AN446 24 h, 200 nM Dox 5 h, combination compared to Dox alone, FIG. 1C) was “significantly enhanced the mortality”, the “therapeutic index (ratio of cancer cell mortality to cardiomyoblast mortality)” value ([5]; U251 vs H9C2, at each time point (24, 48, 72 hours), FIG. 11) was “more than 2” and the “viability / mortality of 4T1 cells” value [6] was “significantly enhanced the mortality”. The “expression of Rad51 in U251 cancer cells” value (Rad51 in U251 cells) was “reduced expression of Rad51”.
